Test results reported in article PMC11729419, “Thiol-Reactive or Redox-Active: Revising a Repurposing Screen Led to a New Invalidation Pipeline and Identified a True Noncovalent Inhibitor Against Papain-like Protease from SARS-CoV-2” (ACS Pharmacology & Translational Science, 2024).
pIC50: −log10 of the molar value. Read-outs that look alike come from different tables or passages of the source.

Tests used:
[1] = molecular target: SARS-CoV-2 PLpro-NAB (Severe acute respiratory syndrome coronavirus 2, UniProt P0DTD1); experiment: biochemical; settings: for Inhibition in L-cysteine buffer versus DTT buffer (dose-response): 1 mM L-cysteine vs 1 mM DTT; for Inhibitory activity on retest in 1 mM L-cysteine: 50% inhibition at 20 μM
[2] = molecular target: SARS-CoV-2 Mpro (Severe acute respiratory syndrome coronavirus 2, UniProt P0DTD1); type: biochemical; settings: 10 μM; 1 mM DTT
[3] = molecular target: SARS-CoV-2 PLpro (Severe acute respiratory syndrome coronavirus 2, UniProt P0DTD1); type: biochemical; settings: dose-response, ISG15 substrate
[4] = read-out: HP PLpro-NAB SARS-CoV-2 inhibition [%] 20 µM triplicates L-CYS BUFFER

CC1(C)C(=O)N=C2C1=C(O)C(=O)c1ccccc12 [BVT-948]
Interference inhibition [%] 20 µM based on product interference DTT BUFFER (Table S1, 20 µM, DTT buffer): -137.72%

CC1=CC(=O)c2ccccc2C1=O [Menadione]
inhibition at 20 µM ([1]; read-out: HC PLpro-NAB SARS-CoV-2 inhibition [%] 20 µM triplicates DTT BUFFER): 115%
inhibition at 20 µM [1, 4]: -45.7%
Interference inhibition [%] 20 µM based on product interference DTT BUFFER: -9.41%

Cc1c(S(=O)(=O)O)oc2c1C(=O)C(=O)c1c-2ccc2c1CCCC2(C)C [Sodium-Tanshinone-ii-A-Sulfonate]
inhibition at 20 µM [1, 4]: -51.9%
Interference inhibition [%] 20 µM based on product interference DTT BUFFER (Table S1, 20 µM, DTT buffer): -7.60%

Cyanocobalamin
HC PLpro-NAB SARS-CoV-2 inhibition [%] 20 µM triplicates DTT BUFFER ([1]; Table S1, 20 µM, DTT buffer, average (SD)): 141.27 (3.32) %
HP PLpro-NAB SARS-CoV-2 inhibition [%] 20 µM triplicates L-CYS BUFFER ([1]; Table S1, 20 µM, L-cysteine buffer, average (SD)): 32.29 (7.95) %
IC50 ([1]; Table S1, DTT buffer, read-out: HP PLpro-NAB SARS-CoV-2 IC50 [µM] triplicates DTT BUFFER): 2.9 µM
IC50 ([1]; Table S1, L-cysteine buffer, read-out: HP PLpro-NAB SARS-CoV-2 IC50 [µM] duplicates L-CYS BUFFER): > 20 µM
Interference inhibition [%] 20 µM based on product interference DTT BUFFER (Table S1, 20 µM, DTT buffer): 4.81%

SF1670
Interference inhibition [%] 20 µM based on product interference DTT BUFFER (Table S1, 20 µM, DTT buffer): 9.17%

Bacitracin [Bacitracin (Zinc)]
Interference inhibition [%] 20 µM based on product interference DTT BUFFER (Table S1, 20 µM, DTT buffer): -1.67%

O=C(Nc1ccccc1-c1cn2c(CN3CCNCC3)csc2n1)c1cnc2ccccc2n1 [SRT 1720]
Interference inhibition [%] 20 µM based on product interference DTT BUFFER (Table S1, 20 µM, DTT buffer): 22.23%

COCCn1c2c([n+](Cc3cnccn3)c1C)C(=O)c1ccccc1C2=O [YM-155]
Interference inhibition [%] 20 µM based on product interference DTT BUFFER (Table S1, 20 µM, DTT buffer): -0.69%

COc1cccc2c(NCc3ccccc3)nc(-n3c(N)nc4ccccc43)nc12 [ML240]
Interference inhibition [%] 20 µM based on product interference DTT BUFFER (Table S1, 20 µM, DTT buffer): 16.72%

Nc1ccc(O)c2ncccc12 [PD119507]
Interference inhibition [%] 20 µM based on product interference DTT BUFFER (Table S1, 20 µM, DTT buffer): 3.43%

N#CSc1cc(SC#N)c(N)nc1N [PR-619]
Interference inhibition [%] 20 µM based on product interference DTT BUFFER (Table S1, 20 µM, DTT buffer): -14.28%
Inhibition of Mpro [2]: inhibition of both proteases from SARS-CoV-2

CN(C)CCNc1nc2cc(O)ccc2c2c1C(=O)c1ccccc1-2.Cl.Cl [TAS-103 (dihydrochloride)]
Interference inhibition [%] 20 µM based on product interference DTT BUFFER (Table S1, 20 µM, DTT buffer): 1.87%

C[C@H]1COC2=C1C(=O)C(=O)c1c2ccc2c1CCCC2(C)C [Cryptotanshinone]
Interference inhibition [%] 20 µM based on product interference DTT BUFFER (Table S1, 20 µM, DTT buffer): 3.37%

CC1(C)CCC2=C(O1)c1ccccc1C(=O)C2=O [Beta-Lapachone]
Interference inhibition [%] 20 µM based on product interference DTT BUFFER (Table S1, 20 µM, DTT buffer): 13.40%

Cc1cc(-c2ccc(/N=N/c3ccc4c(S(=O)(=O)O)cc(S(=O)(=O)O)c(N)c4c3O)c(C)c2)ccc1/N=N/c1ccc2c(S(=O)(=O)O)cc(S(=O)(=O)O)c(N)c2c1O [Evans Blue]
Interference inhibition [%] 20 µM based on product interference DTT BUFFER (Table S1, 20 µM, DTT buffer): 6.47%

Oc1c(Cl)cc(Cl)c(Cl)c1Cc1c(O)c(Cl)cc(Cl)c1Cl [Hexachlorophene]
Interference inhibition [%] 20 µM based on product interference DTT BUFFER (Table S1, 20 µM, DTT buffer): 15.14%

O=c1cc(-c2cc(O)c(O)c(O)c2)oc2cc(O)c(O)c(O)c12 [DOM_SIM_710, 3′,4’,5′,5,6,7-hexahydroxyflavone]
Inhibition in L-cysteine buffer versus DTT buffer (dose-response) [1]: increased inhibition
Inhibitory activity on retest in 1 mM L-cysteine [1]: retained their inhibitory activity
inhibition at 20 µM ([1]; hit confirmation, 20 μM, 1 mM DTT buffer, average (SD), 20 μM PR619 = 100%, DMSO = 0%, read-out: HC PLpro-NAB inhibition [%] 20 μM triplicates 1 mM DTT buffer): 65%
inhibition at 20 µM ([1]; hit profiling, 20 μM, 1 mM L-cys buffer, average (SD), 20 μM PR619 = 100%, read-out: HP PLpro-NAB inhibition [%] 20 μM triplicates 1 mM L-cys buffer): 155%
pIC50 ([1]; hit profiling, 1 mM DTT buffer): < 4.70
Interference inhibition [%] 20 µM based on product interference DTT BUFFER (Table S1, 20 µM, DTT buffer): 10.43%
Potency against PLpro compared with PLpro-NAB [3]: higher potency against PLpro compared with PLpro-NAB
Preference PLpro over Mpro [2]: preferential inhibition of PLpro over Mpro

O=C(O)c1cc(O)c2c(c1)[C@H]([C@H]1c3cc(C(=O)O)cc(O)c3C(=O)c3c(O[C@@H]4O[C@H](CO)[C@@H](O)[C@H](O)[C@H]4O)cccc31)c1cccc(O[C@@H]3O[C@H](CO)[C@@H](O)[C@H](O)[C@H]3O)c1C2=O [sennoside A]
Inhibition in L-cysteine buffer versus DTT buffer (dose-response) [1]: lost its inhibitory potency
Inhibitory activity on retest in 1 mM L-cysteine [1]: retained their inhibitory activity
Interference inhibition [%] 20 µM based on product interference DTT BUFFER (Table S1, 20 µM, DTT buffer): 1.69%
Inhibition of Mpro [2]: inhibition of both proteases from SARS-CoV-2

Cc1cc(-c2ccc(/C=C3/SC(=Nc4ccc(Cl)c(C(=O)O)c4)NC3=O)o2)c([N+](=O)[O-])cc1C [PT 1]
Interference inhibition [%] 20 µM based on product interference DTT BUFFER (Table S1, 20 µM, DTT buffer): 9.93%
